Key:
[1] = test system: human embryonic stem cell derived neural stem cells (NSCs); test: Neural Stem Cell Proliferation Assay (neurogenesis assay, ATP levels by CellTiterGlo); type: cell-based; conditions: 96 h, compound concentration at which 150% activity of control (100%) is reached, NSC proliferation by ATP level after 4 days incubation, dose response 8 μM to 8 nM
Experimental: Neurogenic properties of small molecules are determined based on the proliferation of human embryonic stem cell derived neural stem cells (NSCs) which were derived via a dual smad inhibition as previously described (Chambers, S. M., et al., Highly efficient neural conversion of human ES and iPS cells by dual inhibition of SMAD signaling, Nature biotechnology, 2009. 27(3): p. 275-80.)
Compounds respond is measured by the increase in cells based on ATP levels
(Promega:CellTiterGlo®) after an incubation period of 4 days.
NSCs are thawed and expanded over 3 passages. On the 14th day, NSCs are seeded in Polyornithin/Laminin coated 384 well plates at a cell density of 21′000 cells/cm^2 in a media volume of 38 μl.
4 hours after cell seeding, compound solutions are added at a volume of 2 μl. Stock solutions of the compounds (water, 5% DMSO) are diluted to obtain a dose response (11 points, dilution factor is 2), ranging from 8 μM to 8 nM. Controls are run to consistently determine the neurogenic properties of the cells:
Negative (neutral) control is cell culture Media (final DMSO concentration: 0.25%).
• 1. cell culture Media+100 ng/ml FGF2 (final DMSO concentration: 0.1%) • 2. cell culture Media+20 ng/ml EGF (final DMSO concentration: 0.1%) • 3. cell culture Media+100 ng/ml Wnt3a (final DMSO concentration: 0.1%)
After 4 days incubation at 37° C., 5% CO2, the amount of ATP per well is quantified. The ATP concentration is proportional to the cell number. ATP is quantified by using the Promega CellTiterGlo® kit. The CellTiterGlo® reagents contain a cell lysis buffer, a thermo stable luciferase (UltraGlo™ recombinant luciferase), magnesium and luciferin. Luciferin reacts with ATP producing oxyluciferin, AMP and light. The luminescence signal is proportional to the ATP content.
The value of negative (neutral) control is determined for each assay plate by taking the average of 16 negative control wells. The neurogenic compound response is calculated for each compound as (compound/Negative Control)*100.
The values of EC150 from the dose response curve are determined for each test compound. The EC150 is the compound concentration at which 150% activity of control (100%) is reached.

SMILES	melting point [°C]	EC (150% of control) [1] [µM]
N#Cc1cc(-c2ccc(Cl)cc2Cl)c2c(c1)cc1n2CCNC1=O [Example 175, 6-(2,4-Dichloro-phenyl)-1-oxo-1,2,3,4-tetrahydro-pyrazino[1,2-a]indole-8-carbonitrile]	284.5	0.034
O=C1NCCn2c1cc1c(F)c(F)cc(-c3ccc(F)cc3)c12 [Example 32, 8,9-Difluoro-6-(4-fluoro-phenyl)-3,4-dihydro-2H-pyrazino[1,2-a]indol-1-one]	283.5	2.6
O=C1NCCCn2c1cc1cc(F)c(F)c(-c3ccc(F)cc3)c12 [Example 40, 8,9-Difluoro-7-(4-fluoro-phenyl)-2,3,4,5-tetrahydro-[1,4]diazepino[1,2-a]indol-1-one]	223.5	0.024
O=C1NCCCn2c1cc1cc(F)cc(-c3ccc(F)c(F)c3)c12 [Example 28, 7-(3,4-Difluoro-phenyl)-9-fluoro-2,3,4,5-tetrahydro-[1,4]diazepino[1,2-a]indol-1-one]	230.5	0.1
COc1ccc(-c2cc(Cl)cc3c(C)c4n(c23)CCNC4=O)cn1 [Example 111, 8-Chloro-6-(6-methoxy-pyridin-3-yl)-10-methyl-3,4-dihydro-2H-pyrazino[1,2-a]indol-1-one]	196	0.015
Cc1c2n(c3c(-c4ccc(F)c(F)c4)cc(Cl)cc13)CCNC2=O [Example 64, 8-Chloro-6-(3,4-difluoro-phenyl)-10-methyl-3,4-dihydro-2H-pyrazino[1,2-a]indol-1-one]	235.5	0.12
Cc1c2n(c3c(-c4ccc(F)c(F)c4F)cc(F)cc13)CCNC2=O [Example 151, 8-Fluoro-10-methyl-6-(2,3,4-trifluoro-phenyl)-3,4-dihydro-2H-pyrazino[1,2-a]indol-1-one]	130	0.035
Cc1c2n(c3c(-c4cc(F)c(F)c(F)c4)cc(F)cc13)CCNC2=O [Example 159, 8-Fluoro-10-methyl-6-(3,4,5-trifluoro-phenyl)-3,4-dihydro-2H-pyrazino[1,2-a]indol-1-one]	250	0.22
Cc1c2n(c3c(-c4ccc(F)cc4)cc(C#N)cc13)CCNC2=O [Example 162, 6-(4-Fluoro-phenyl)-10-methyl-1-oxo-1,2,3,4-tetrahydro-pyrazino[1,2-a]indole-8-carbonitrile]	292	0.021
N#Cc1cc(-c2ccc(F)c(F)c2)c2c(c1)c(C(F)(F)F)c1n2CCNC1=O [Example 182, 6-(3,4-Difluoro-phenyl)-1-oxo-10-trifluoromethyl-1,2,3,4-tetrahydro-pyrazino[1,2-a]indole-8-carbonitrile]	217	0.29
Cc1c2n(c3c(-c4ccc(Cl)cc4)cc(Cl)cc13)CCCNC2=O [Example 69, 9-Chloro-7-(4-chloro-phenyl)-11-methyl-2,3,4,5-tetrahydro-[1,4]diazepino[1,2-a]indol-1-one]	271	0.061
Cc1c2n(c3c(-c4nnc(C(F)(F)F)s4)cc(F)cc13)CCNC2=O [Example 184, 8-Fluoro-10-methyl-6-[5-(trifluoromethyl)-1,3,4-thiadiazol-2-yl]-3,4-dihydro-2H-pyrazino[1,2-a]indol-1-one]	227	1.11
O=C1NCCn2c1cc1cc(Cl)cc(-c3ccc(Cl)cc3)c12 [Example 49, 8-Chloro-6-(4-chloro-phenyl)-3,4-dihydro-2H-pyrazino[1,2-a]indol-1-one]	320	0.045
Cc1ccc(-c2cc(Cl)cc3cc4n(c23)CCCNC4=O)cc1 [Example 47, 9-Chloro-7-p-tolyl-2,3,4,5-tetrahydro-[1,4]diazepino[1,2-a]indol-1-one]	227	0.6
COc1ccc(-c2cc(Cl)cc3c(C)c4n(c23)CCNC4=O)cc1 [Example 67, 8-Chloro-6-(4-methoxy-phenyl)-10-methyl-3,4-dihydro-2H-pyrazino[1,2-a]indol-1-one]	264	0.008
O=C1NCCn2c1cc1cc(Cl)cc(-c3ccc(F)cc3)c12 [Example 51, 8-Chloro-6-(4-fluoro-phenyl)-3,4-dihydro-2H-pyrazino[1,2-a]indol-1-one]	298	0.098
Cc1c2n(c3c(-c4cncnc4)cc(Cl)cc13)CCNC2=O [Example 138, 8-Chloro-10-methyl-6-pyrimidin-5-yl-3,4-dihydro-2H-pyrazino[1,2-a]indol-1-one]	306	0.21
Cc1ccc(-c2cc(F)cc3cc4n(c23)CCNC4=O)cc1 [Example 24, 8-Fluoro-6-p-tolyl-3,4-dihydro-2H-pyrazino[1,2-a]indol-1-one]	271.5	0.017
Cc1c2n(c3c(-c4ccc(Cl)cc4Cl)cc(F)cc13)CCNC2=O [Example 120, 6-(2,4-Dichloro-phenyl)-8-fluoro-10-methyl-3,4-dihydro-2H-pyrazino[1,2-a]indol-1-one]	214	0.01
N#Cc1ccc(-c2cc(C#N)cc3cc4n(c23)CCNC4=O)cc1 [Example 176, 6-(4-Cyano-phenyl)-1-oxo-1,2,3,4-tetrahydro-pyrazino[1,2-a]indole-8-carbonitrile]	363	0.17

Continued, in another order:

melting point [°C]	SMILES	EC (150% of control) [1] [µM]
278.5	N#Cc1cc(-c2ccncc2)c2c(c1)cc1n2CCCNC1=O [Example 271, 1-Oxo-7-pyridin-4-yl-2,3,4,5-tetrahydro-[1,4]diazepino[1,2-a]indole-9-carbonitrile]	0.65
286.5	N#Cc1cc(-c2ccnc(Cl)c2)c2c(c1)cc1n2CCCNC1=O [Example 257, 7-(2-Chloropyridin-4-yl)-1-oxo-2,3,4,5-tetrahydro-[1,4]diazepino[1,2-a]indole-9-carbonitrile]	0.54
278	Cc1c2n(c3c(-c4ccc(F)cc4)cc(C#N)cc13)CCCNC2=O [Example 198, 7-(4-Fluorophenyl)-11-methyl-1-oxo-2,3,4,5-tetrahydro-[1,4]diazepino[1,2-a]indole-9-carbonitrile]	0.033
217.5	N#Cc1cc(-c2ccc(Cl)c(Cl)c2)c2c(c1)cc1n2CCCNC1=O [Example 249, 7-(3,4-Dichlorophenyl)-1-oxo-2,3,4,5-tetrahydro-[1,4]diazepino[1,2-a]indole-9-carbonitrile]	0.31
266	Cc1c2n(c3c(-c4cccc(C#N)c4)cc(C#N)cc13)CCNC2=O [Example 279, 6-(3-Cyanophenyl)-10-methyl-1-oxo-3,4-dihydro-2H-pyrazino[1,2-a]indole-8-carbonitrile]	0.31
265	Cc1c2n(c3c(-c4ccc(CO)cc4)cc(C#N)cc13)CCNC2=O [Example 277, 6-[4-(Hydroxymethyl)phenyl]-10-methyl-1-oxo-3,4-dihydro-2H-pyrazino[1,2-a]indole-8-carbonitrile]	0.025
306	Cc1c2n(c3c(-c4cc(F)c(F)c(F)c4)cc(C#N)cc13)CCCNC2=O [Example 244, 11-Methyl-1-oxo-7-(3,4,5-trifluorophenyl)-2,3,4,5-tetrahydro-[1,4]diazepino[1,2-a]indole-9-carbonitrile]	0.47
252	Cc1c2n(c3c(-c4ccc(C(F)(F)F)cc4)cc(C#N)cc13)CCCNC2=O [Example 197, 11-Methyl-1-oxo-7-[4-(trifluoromethyl)phenyl]-2,3,4,5-tetrahydro-[1,4]diazepino[1,2-a]indole-9-carbonitrile]	0.14
221.5	N#Cc1cc(-c2ccc(Cl)c(F)c2)c2c(c1)cc1n2CCCNC1=O [Example 252, 7-(4-Chloro-3-fluorophenyl)-1-oxo-2,3,4,5-tetrahydro-[1,4]diazepino[1,2-a]indole-9-carbonitrile]	1.38
330.5	N#Cc1cc(-c2ccc(Cl)c(Cl)c2)c2c(c1)cc1n2CCNC1=O [Example 192, 6-(3,4-Dichlorophenyl)-1-oxo-3,4-dihydro-2H-pyrazino[1,2-a]indole-8-carbonitrile]	0.13

— US9284321B2, “Piperazino[1,2-a]indol-1-ones and [1,4]diazepino[1,2-a]indol-1-one” (Hoffmann-La Roche Inc., priority 2012, dated 2016)
